Data published in the NIST ThermoML archive (doi:10.1016/j.jct.2008.09.016).

Assay: mn = molality of the nth substance listed, in mol/kg
Details: 101 kPa, Liquid, Vibrating tube method

O=C([O-])Cc1ccccc1Nc1c(Cl)cccc1Cl.[Na+] [sodium diclofenac] + O
mass density [kg/m3]
Details	m1 = 0.0075	m1 = 0.0076	m1 = 0.01	m1 = 0.0125	m1 = 0.0152	m1 = 0.0175	m1 = 0.02	m1 = 0.025
293.15 K	–	998.331	998.385	998.445	998.525	998.605	998.695	998.911
298.15 K	–	997.159	997.215	997.261	997.325	997.405	997.505	997.691
303.15 K	–	995.745	995.795	995.851	995.905	995.973	996.075	996.239
308.15 K	–	994.125	994.175	994.221	994.294	994.351	994.436	994.595
310.15 K	–	993.388	993.424	993.475	993.541	993.591	993.661	993.851
313.15 K	992.285	–	992.325	992.375	992.428	992.481	992.545	992.725
